According to US7629341B2, “Human ADAM-10 inhibitors” (Symphony Evolution, Inc., priority 2003, dated 2009):

Legend:
[1] = biological target: T1, MMP-2 (72 kDa gelatinase, gelatinase A) (Homo sapiens, UniProt P08253); test: In vitro metalloprotease inhibition, MMP-2; type: biochemical
T1 sequence (P08253 110-660): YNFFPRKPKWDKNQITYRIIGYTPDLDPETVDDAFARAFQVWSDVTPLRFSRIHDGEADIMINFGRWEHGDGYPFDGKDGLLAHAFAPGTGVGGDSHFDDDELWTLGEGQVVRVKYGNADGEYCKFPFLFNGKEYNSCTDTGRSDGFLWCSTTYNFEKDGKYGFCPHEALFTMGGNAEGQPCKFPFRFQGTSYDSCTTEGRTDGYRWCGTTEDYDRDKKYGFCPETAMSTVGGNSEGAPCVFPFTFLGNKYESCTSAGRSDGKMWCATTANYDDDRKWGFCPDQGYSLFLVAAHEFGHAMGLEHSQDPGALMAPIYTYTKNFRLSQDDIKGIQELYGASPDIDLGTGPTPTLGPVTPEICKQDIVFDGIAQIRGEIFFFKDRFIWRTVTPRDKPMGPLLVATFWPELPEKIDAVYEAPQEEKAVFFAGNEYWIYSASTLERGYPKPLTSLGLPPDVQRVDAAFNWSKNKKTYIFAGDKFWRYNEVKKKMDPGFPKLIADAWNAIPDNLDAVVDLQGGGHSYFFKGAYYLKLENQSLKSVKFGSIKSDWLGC

MMP-3 (Stromelysin-1) = MMP-3 (Stromelysin-1) (Homo sapiens, UniProt P08254); test: In vitro metalloprotease inhibition, MMP-3; type: biochemical
From the text: (§1) Blank cells indicate lack of data only.

ADAM-10 = biological target: T2, ADAM-10 (UniProt O14672); test: ADAM-10 enzyme assay, cleavage of a fluorogenic 10-residue peptide; type: biochemical, mouse or human (mADAM-10 or hADAM-10); settings: in vitro;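 note: mouse or human ADAM-10 at 5 nM active enzyme, pH 8.0 HEPES buffer with CaCl2 and NP-40, compounds titrated 100 µM down to 0.5 nM, fluorescence read after 16 h at room temperature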
T2 sequence (O14672 1-748): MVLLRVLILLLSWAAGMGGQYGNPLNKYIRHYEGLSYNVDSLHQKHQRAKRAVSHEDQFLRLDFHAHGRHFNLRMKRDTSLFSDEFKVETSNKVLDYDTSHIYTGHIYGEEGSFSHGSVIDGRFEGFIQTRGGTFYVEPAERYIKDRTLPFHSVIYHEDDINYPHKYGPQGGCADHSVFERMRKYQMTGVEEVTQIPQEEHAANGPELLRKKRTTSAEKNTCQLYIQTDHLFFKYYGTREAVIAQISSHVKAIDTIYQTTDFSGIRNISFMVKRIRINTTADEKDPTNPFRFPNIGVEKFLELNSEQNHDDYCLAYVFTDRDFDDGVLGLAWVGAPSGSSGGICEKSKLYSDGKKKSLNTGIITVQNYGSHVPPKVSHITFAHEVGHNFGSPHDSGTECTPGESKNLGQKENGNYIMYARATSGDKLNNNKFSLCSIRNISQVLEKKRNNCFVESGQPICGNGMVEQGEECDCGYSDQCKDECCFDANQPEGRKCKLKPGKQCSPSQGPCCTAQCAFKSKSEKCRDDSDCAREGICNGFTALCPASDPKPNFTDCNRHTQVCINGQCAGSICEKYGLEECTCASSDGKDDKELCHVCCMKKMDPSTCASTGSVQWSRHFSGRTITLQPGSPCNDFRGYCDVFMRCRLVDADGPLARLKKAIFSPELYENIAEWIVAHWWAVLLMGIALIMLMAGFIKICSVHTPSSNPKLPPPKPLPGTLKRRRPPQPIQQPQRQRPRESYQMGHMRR
Method: mADAM-10 or hADAM-10 activity was measured as the ability to cleave a 10-residue peptide (DABCYL-Leu-Leu-Ala-Gln-Lys-*-LeuArg-Ser-Ser-Arg-EDANS). […] Enzyme was diluted to a final active concentration of 5 nM in Buffer A (50 mM HEPES 8.0, 100 mM NaCl, 1 mM CaCl2 and 0.01% NP-40). Serial dilutions for compounds were performed ranging from 100 μM to 0.5 nM using a Beckman Biomek 2000 in polypropylene plates (Greiner). […] This reaction was incubated for 16 hr at RT and fluorescence was read using identical conditions.

MMP-13 (collagenase-3) = MMP-13 (collagenase-3) (Homo sapiens, UniProt P45452); test: In vitro metalloprotease inhibition, MMP-13; type: biochemical
[2] = biological target: T3, MMP-1 (Fibroblast collagenase) (Homo sapiens, UniProt P03956); test: In vitro metalloprotease inhibition, MMP-1; type: biochemical
T3 sequence (P03956 100-469): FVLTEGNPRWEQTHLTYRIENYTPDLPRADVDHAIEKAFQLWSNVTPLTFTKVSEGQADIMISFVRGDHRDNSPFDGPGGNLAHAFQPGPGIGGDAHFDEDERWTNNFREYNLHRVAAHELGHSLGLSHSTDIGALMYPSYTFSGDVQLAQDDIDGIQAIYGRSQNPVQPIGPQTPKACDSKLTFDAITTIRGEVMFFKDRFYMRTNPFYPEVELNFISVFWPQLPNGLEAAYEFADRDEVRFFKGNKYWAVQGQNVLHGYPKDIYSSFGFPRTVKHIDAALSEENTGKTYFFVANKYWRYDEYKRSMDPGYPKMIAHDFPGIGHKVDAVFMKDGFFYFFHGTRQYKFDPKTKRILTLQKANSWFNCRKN
From the text: as §1

Chain of MMP-3 (Stromelysin-1) (P08254 100-477, species assumed): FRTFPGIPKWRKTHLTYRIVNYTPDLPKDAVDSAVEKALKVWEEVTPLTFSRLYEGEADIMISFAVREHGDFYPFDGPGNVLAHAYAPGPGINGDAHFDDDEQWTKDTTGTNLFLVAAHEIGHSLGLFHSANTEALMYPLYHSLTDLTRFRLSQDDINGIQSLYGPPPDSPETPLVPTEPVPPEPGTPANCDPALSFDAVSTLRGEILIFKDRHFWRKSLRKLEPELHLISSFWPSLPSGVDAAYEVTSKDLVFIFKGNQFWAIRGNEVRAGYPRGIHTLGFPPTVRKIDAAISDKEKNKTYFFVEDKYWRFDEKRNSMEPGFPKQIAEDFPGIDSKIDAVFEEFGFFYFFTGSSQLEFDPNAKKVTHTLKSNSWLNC

IC50 [1] | IC50 (MMP-3 (Stromelysin-1)) | IC50 (ADAM-10) | IC50 (MMP-13 (collagenase-3)) | IC50 [2] | SMILES
< 50 nM | < 50 nM | < 50 nM | < 50 nM | 1000 to 20000 nM | O=C(NO)[C@H]1CN(S(=O)(=O)c2cc(F)c(O)c(F)c2)CCN1S(=O)(=O)c1cc(F)c(Oc2ccc(Cl)cc2)c(F)c1 [Entry 41]
< 50 nM | 50 to 1000 nM | < 50 nM | < 50 nM | 1000 to 20000 nM | O=C(CCl)NC(=O)N1CCN(S(=O)(=O)c2cc(F)c(Oc3ccc(Cl)cc3)c(F)c2)[C@@H](C(=O)NO)C1 [Entry 33]
1000 to 20000 nM | > 20000 nM | 50 to 1000 nM | 1000 to 20000 nM | > 20000 nM | O=C(NO)[C@H]1CN(S(=O)(=O)Cc2cc(Cl)cc(Cl)c2)CCN1S(=O)(=O)c1cc(F)c(Oc2ccc(Cl)cc2)c(F)c1 [Entry 61]
< 50 nM | 50 to 1000 nM | < 50 nM | < 50 nM | 50 to 1000 nM | COCCOC(=O)N1CCN(S(=O)(=O)c2ccc(Oc3ccc(C#N)cc3)c(F)c2)[C@@H](C(=O)NO)C1 [Entry 5]
< 50 nM | 50 to 1000 nM | < 50 nM | < 50 nM | 50 to 1000 nM | CS(=O)(=O)N1CCN(S(=O)(=O)c2cc(F)c(Oc3ccc(Cl)cc3)c(F)c2)[C@@H](C(=O)NO)C1 [Entry 28]
< 50 nM | 1000 to 20000 nM | < 50 nM | < 50 nM | 1000 to 20000 nM | COCCOC(=O)N1CCN(S(=O)(=O)c2cc(F)c(Oc3ccc(F)cc3)c(F)c2)[C@@H](C(=O)NO)C1 [Entry 10]
< 50 nM | < 50 nM | < 50 nM | < 50 nM | 50 to 1000 nM | COCCOC(=O)N1CCN(S(=O)(=O)c2ccc(-c3cccc(F)c3)nc2)[C@@H](C(=O)NO)C1 [Entry 66]
< 50 nM | 50 to 1000 nM | < 50 nM | < 50 nM | > 20000 nM | CCCCCCC(=O)N1CCN(S(=O)(=O)c2cc(F)c(Oc3ccc(Cl)cc3)c(F)c2)[C@@H](C(=O)NO)C1 [Entry 43]
< 50 nM | 50 to 1000 nM | < 50 nM | < 50 nM | 1000 to 20000 nM | CN(C)S(=O)(=O)N1CCN(S(=O)(=O)c2cc(F)c(Oc3ccc(Cl)cc3)c(F)c2)[C@@H](C(=O)NO)C1 [Entry 36]
< 50 nM | 50 to 1000 nM | < 50 nM | < 50 nM | 1000 to 20000 nM | COCCOC(=O)N1CCN(S(=O)(=O)c2cc(F)c(Oc3ccccc3)c(F)c2)[C@@H](C(=O)NO)C1 [Entry 40]
< 50 nM | < 50 nM | 50 to 1000 nM | < 50 nM | < 50 nM | COCCOC(=O)N1CCN(S(=O)(=O)c2ccc(Oc3ccc(F)cc3)nc2)[C@@H](C(=O)NO)C1 [Entry 65]
< 50 nM | 1000 to 20000 nM | < 50 nM | 50 to 1000 nM | > 20000 nM | O=C(NO)[C@H]1CN(CC(=O)N2CCCC2)CCN1S(=O)(=O)c1cc(F)c(Oc2ccc(Cl)cc2)c(F)c1 [Entry 21]
< 50 nM | 1000 to 20000 nM | < 50 nM | 50 to 1000 nM | > 20000 nM | CCCC(CCC)C(=O)N1CCN(S(=O)(=O)c2cc(F)c(Oc3ccc(Cl)cc3)c(F)c2)[C@@H](C(=O)NO)C1 [Entry 44]
< 50 nM | 50 to 1000 nM | < 50 nM | < 50 nM | 1000 to 20000 nM | CCOC(=O)N1CCN(CCS(=O)(=O)N2CCN(S(=O)(=O)c3cc(F)c(Oc4ccc(Cl)cc4)c(F)c3)[C@@H](C(=O)NO)C2)CC1 [Entry 56]
< 50 nM | 1000 to 20000 nM | < 50 nM | < 50 nM | > 20000 nM | CCOC(=O)N1CCN(CC(=O)N2CCN(S(=O)(=O)c3cc(F)c(Oc4ccc(Cl)cc4)c(F)c3)[C@@H](C(=O)NO)C2)CC1 [Entry 23]
< 50 nM | 1000 to 20000 nM | < 50 nM | < 50 nM | > 20000 nM | CN1CCN(C(=O)N2CCN(S(=O)(=O)c3cc(F)c(Oc4ccc(Cl)cc4)c(F)c3)[C@@H](C(=O)NO)C2)CC1 [Entry 16]
> 20000 nM | 50 to 1000 nM | 1000 to 20000 nM | < 50 nM | > 20000 nM | CN(C)c1ccc2ccc(S(=O)(=O)N3CCN(S(=O)(=O)c4cc(F)c(Oc5ccc(Cl)cc5)c(F)c4)[C@@H](C(=O)NO)C3)cc2c1 [Entry 50]
50 to 1000 nM | 1000 to 20000 nM | 50 to 1000 nM | 50 to 1000 nM | > 20000 nM | O=C(NO)[C@H]1CN(S(=O)(=O)CCN2CCOCC2)CCN1S(=O)(=O)c1cc(F)c(Oc2ccc(Cl)cc2)c(F)c1 [Entry 57]
< 50 nM | 1000 to 20000 nM | < 50 nM | < 50 nM | > 20000 nM | O=C(NO)[C@H]1CN(C(=O)CN2CCCCC2)CCN1S(=O)(=O)c1cc(F)c(Oc2ccc(Cl)cc2)c(F)c1 [Entry 26]
< 50 nM | > 20000 nM | 50 to 1000 nM | < 50 nM | > 20000 nM | CN1CCN(S(=O)(=O)c2cc(F)c(Oc3ccc(F)cc3)c(F)c2)[C@@H](C(=O)NO)C1 [Entry 14]
< 50 nM | 1000 to 20000 nM | < 50 nM | < 50 nM | 1000 to 20000 nM | O=C(NO)[C@H]1CN(C(=O)Cc2ccncc2)CCN1S(=O)(=O)c1cc(F)c(Oc2ccc(Cl)cc2)c(F)c1 [Entry 52]
< 50 nM | 50 to 1000 nM | < 50 nM | < 50 nM | > 20000 nM | O=C(NO)[C@H]1CN(C(=O)OCCN2CCCC2)CCN1S(=O)(=O)c1cc(F)c(Oc2ccc(Cl)cc2)c(F)c1 [Entry 18]
< 50 nM | 50 to 1000 nM | < 50 nM | < 50 nM | 1000 to 20000 nM | CN1CCN(CCS(=O)(=O)N2CCN(S(=O)(=O)c3cc(F)c(Oc4ccc(Cl)cc4)c(F)c3)[C@@H](C(=O)NO)C2)CC1 [Entry 55]
< 50 nM | 1000 to 20000 nM | < 50 nM | < 50 nM | 50 to 1000 nM | COCCOC(=O)N1CCN(S(=O)(=O)c2ccc(Oc3ccc(F)cc3)c(F)c2)[C@@H](C(=O)NO)C1 [Entry 3]
< 50 nM | 50 to 1000 nM | < 50 nM | < 50 nM | 1000 to 20000 nM | COCCN1CCN(S(=O)(=O)c2cc(F)c(Oc3ccc(Cl)cc3)c(F)c2)[C@@H](C(=O)NO)C1 [Entry 29]
50 to 1000 nM | 1000 to 20000 nM | 50 to 1000 nM | > 20000 nM | > 20000 nM | O=C(NO)[C@H]1CNCCN1S(=O)(=O)c1cc(F)c(Oc2ccc(F)cc2)c(F)c1 [Entry 11]
< 50 nM | 50 to 1000 nM | < 50 nM | < 50 nM | > 20000 nM | CNC(=O)CN1CCN(S(=O)(=O)c2cc(F)c(Oc3ccc(Cl)cc3)c(F)c2)[C@@H](C(=O)NO)C1 [Entry 19]
< 50 nM | < 50 nM | < 50 nM | < 50 nM | 50 to 1000 nM | N#Cc1ccc(Oc2ccc(S(=O)(=O)N3CCN(C(=O)N4CCOCC4)C[C@@H]3C(=O)NO)cc2F)cc1 [Entry 7]
< 50 nM | 50 to 1000 nM | 1000 to 20000 nM | < 50 nM | > 20000 nM | CN(C)c1ccc2c(S(=O)(=O)N3CCN(S(=O)(=O)c4cc(F)c(Oc5ccc(Cl)cc5)c(F)c4)[C@@H](C(=O)NO)C3)cccc2c1 [Entry 49]
